Laboratory results: ChEMBL document CHEMBL1201862, “PubChem BioAssay data set” (2004)
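Grown in 96-well plates, cells were treated for 48 hours with each compound at five concentrations. Insufficient inhibition: endpoint recorded as highest concentration tested. GI50: concentration for 50% inhibition of growth.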 Active and inactive are the calls of the source. Rule as the data show it: active = GI50 up to about 1.1 µM and inactive = higher.

Key:
Assay in all cases: NCI-60 cell line screen, 48 h
CAKI-1 = test system: CAKI-1
HCC 2998 = test system: HCC 2998
SN12C = test system: SN12C
PC-3 = test system: PC-3
HOP-62 = test system: HOP-62
K562 = test system: K562
SF-539 = test system: SF-539
TK-10 = test system: TK-10
NCI-H23 = test system: NCI-H23
A549 = test system: A549
SK-OV-3 = test system: SK-OV-3
U-251 = test system: U-251
MDA-MB-231 = test system: MDA-MB-231
MOLT-4 = test system: MOLT-4
NCI-H226 = test system: NCI-H226
HCT-15 = test system: HCT-15
M14 = test system: M14
UACC-62 = test system: UACC-62
NCI/ADR-RES = test system: NCI/ADR-RES
HOP-92 = test system: HOP-92

With `CN1CN(c2ccccc2)C2(CCN(CCC3COc4ccccc4O3)CC2)C1=O` (stereo not drawn) the GI50 (CAKI-1) was 28.2 µM (inactive), the GI50 (HCC 2998) was 8.07 µM (inactive) and the GI50 (SN12C) was 27.7 µM (inactive). The GI50 (PC-3) was 27.8 µM (inactive), the GI50 (HOP-62) was > 10 µM (inactive) and the GI50 (K562) was 20.1 µM (inactive). For the same molecule, the GI50 (SF-539) was 18.8 µM (inactive), the GI50 (TK-10) was 17.7 µM (inactive) and the GI50 (NCI-H23) was 30.4 µM (inactive). The GI50 (A549) was 33.1 µM (inactive), the GI50 (SK-OV-3) was 26.6 µM (inactive) and the GI50 (U-251) was 27.5 µM (inactive). For the same molecule, the GI50 (MDA-MB-231) was 31.9 µM (inactive), the GI50 (MOLT-4) was 17 µM (inactive) and the GI50 (NCI-H226) was 27.9 µM (inactive). The GI50 (HCT-15) was 24.8 µM, the GI50 (M14) was 15.6 µM (inactive) and the GI50 (UACC-62) was 27.5 µM (inactive). The GI50 (NCI/ADR-RES) was 19.7 µM (inactive).
For `CC(C)(C)[Si](C)(C)OCCCCC1CC2(S(=O)(=O)C3=CC=C=C=C3)ON1CC2S(=O)(=O)c1ccccc1` (stereo not drawn), the GI50 (HCC 2998) was > 100 µM (inactive), the GI50 (SN12C) was > 100 µM (inactive) and the GI50 (HOP-62) was > 100 µM (inactive). For the same molecule, the GI50 (K562) was > 100 µM (inactive), the GI50 (SF-539) was > 100 µM (inactive) and the GI50 (HOP-92) was > 100 µM (inactive). The GI50 (TK-10) was > 100 µM (inactive), the GI50 (NCI-H23) was > 100 µM (inactive) and the GI50 (A549) was > 100 µM (inactive). The GI50 (SK-OV-3) was > 100 µM (inactive), the GI50 (U-251) was > 100 µM (inactive) and the GI50 (MDA-MB-231) was > 100 µM (inactive). The GI50 (MOLT-4) was > 100 µM (inactive), the GI50 (NCI-H226) was > 100 µM (inactive) and the GI50 (HCT-15) was greater than 100 µM. The GI50 (M14) was > 100 µM (inactive), the GI50 (UACC-62) was > 100 µM (inactive) and the GI50 (NCI/ADR-RES) was > 100 µM (inactive).
For `CC(C)CCCC(=O)CCCCCCC(=O)CCN(O)C(=O)C(N)CO` (stereo not drawn), the GI50 (CAKI-1) was 16 µM (inactive), the GI50 (SN12C) was 16.9 µM (inactive) and the GI50 (PC-3) was 12.6 µM (inactive). For the same molecule, the GI50 (HOP-62) was 21.2 µM (inactive), the GI50 (K562) was 28.3 µM (inactive) and the GI50 (SF-539) was 16 µM (inactive). The GI50 (TK-10) was 14.7 µM (inactive), the GI50 (NCI-H23) was 15.1 µM (inactive) and the GI50 (SK-OV-3) was 19.1 µM (inactive). The GI50 (U-251) was 21.8 µM (inactive), the GI50 (MDA-MB-231) was 16.2 µM (inactive) and the GI50 (MOLT-4) was 41.7 µM (inactive). For the same molecule, the GI50 (NCI-H226) was 14 µM (inactive), the GI50 (HCT-15) was 15.3 µM and the GI50 (M14) was 20.2 µM (inactive). The GI50 (UACC-62) was 16.7 µM (inactive) and the GI50 (NCI/ADR-RES) was 16.1 µM (inactive).
`COc1ccc2c(c1)OCC1=C2Oc2ccccc2C1` was tested, and the GI50 (CAKI-1) was 49.7 µM (inactive), the GI50 (HCC 2998) was 24 µM (inactive) and the GI50 (SN12C) was 39.3 µM (inactive). The GI50 (PC-3) was 34.8 µM (inactive), the GI50 (HOP-62) was 55.3 µM (inactive) and the GI50 (K562) was 22.1 µM (inactive). For the same molecule, the GI50 (SF-539) was 27.5 µM (inactive), the GI50 (TK-10) was 40.2 µM (inactive) and the GI50 (NCI-H23) was 53.2 µM (inactive). The GI50 (A549) was 48.5 µM (inactive), the GI50 (SK-OV-3) was 85.3 µM (inactive) and the GI50 (U-251) was 33.5 µM (inactive). For the same molecule, the GI50 (MDA-MB-231) was 23.5 µM (inactive), the GI50 (MOLT-4) was 20.3 µM (inactive) and the GI50 (NCI-H226) was 27 µM (inactive). The GI50 (HCT-15) was 31 µM, the GI50 (M14) was 38 µM (inactive) and the GI50 (UACC-62) was 69 µM (inactive). The GI50 (NCI/ADR-RES) was 44.4 µM (inactive).
For `CCOC(=O)/C(=N\OC)C(O)C(F)(F)F` (stereo not drawn), the GI50 (CAKI-1) was > 100 µM (inactive), the GI50 (HCC 2998) was > 100 µM (inactive) and the GI50 (SN12C) was > 100 µM (inactive). The GI50 (PC-3) was > 100 µM (inactive), the GI50 (HOP-62) was > 100 µM (inactive) and the GI50 (K562) was > 100 µM (inactive). For the same molecule, the GI50 (SF-539) was > 100 µM (inactive), the GI50 (TK-10) was > 100 µM (inactive) and the GI50 (NCI-H23) was > 100 µM (inactive). The GI50 (A549) was > 100 µM (inactive), the GI50 (SK-OV-3) was > 100 µM (inactive) and the GI50 (U-251) was > 100 µM (inactive). For the same molecule, the GI50 (MDA-MB-231) was > 100 µM (inactive), the GI50 (MOLT-4) was > 100 µM (inactive) and the GI50 (NCI-H226) was > 100 µM (inactive). The GI50 (HCT-15) was greater than 100 µM, the GI50 (M14) was > 100 µM (inactive) and the GI50 (UACC-62) was > 100 µM (inactive). For the same molecule, the GI50 (NCI/ADR-RES) was > 100 µM (inactive).
For `CCOC(=O)c1c(SCc2cc(=O)[nH]c(=O)[nH]2)n(-c2ccccc2)c(=S)n(-c2ccccc2)c1=O`, the GI50 (CAKI-1) was > 100 µM (inactive), the GI50 (HCC 2998) was > 100 µM (inactive) and the GI50 (SN12C) was > 100 µM (inactive). For the same molecule, the GI50 (PC-3) was > 100 µM (inactive), the GI50 (HOP-62) was > 100 µM (inactive) and the GI50 (K562) was > 100 µM (inactive). The GI50 (SF-539) was > 100 µM (inactive), the GI50 (TK-10) was > 100 µM (inactive) and the GI50 (A549) was > 100 µM (inactive). The GI50 (SK-OV-3) was > 10 µM (inactive), the GI50 (U-251) was > 100 µM (inactive) and the GI50 (MDA-MB-231) was > 100 µM (inactive). The GI50 (MOLT-4) was > 100 µM (inactive), the GI50 (HCT-15) was greater than 100 µM and the GI50 (M14) was > 100 µM (inactive). The GI50 (UACC-62) was > 100 µM (inactive) and the GI50 (NCI/ADR-RES) was > 100 µM (inactive).
`O=NN(CCCl)C(=O)N[C@H]1CC[C@@H](CC(=O)O)CC1` was tested, and the GI50 (CAKI-1) was > 100 µM (inactive), the GI50 (HCC 2998) was > 100 µM (inactive) and the GI50 (SN12C) was > 100 µM (inactive). For the same molecule, the GI50 (HOP-62) was > 100 µM (inactive), the GI50 (K562) was > 100 µM (inactive) and the GI50 (SF-539) was 45.7 µM (inactive). The GI50 (HOP-92) was > 84.9 µM (inactive), the GI50 (NCI-H23) was > 100 µM (inactive) and the GI50 (A549) was > 100 µM (inactive). For the same molecule, the GI50 (SK-OV-3) was > 100 µM (inactive), the GI50 (U-251) was 74 µM (inactive) and the GI50 (MOLT-4) was 44 µM (inactive). The GI50 (NCI-H226) was > 100 µM (inactive), the GI50 (HCT-15) was greater than 100 µM and the GI50 (UACC-62) was 35.2 µM (inactive). For the same molecule, the GI50 (NCI/ADR-RES) was > 100 µM (inactive).
`CCOC(=O)CC/C(C)=N\n1c(Cc2ccc(Cl)cc2)n[nH]c1=O` was tested, and the GI50 (CAKI-1) was > 100 µM (inactive), the GI50 (HCC 2998) was > 100 µM (inactive) and the GI50 (SN12C) was > 100 µM (inactive). For the same molecule, the GI50 (PC-3) was > 100 µM (inactive), the GI50 (HOP-62) was > 100 µM (inactive) and the GI50 (K562) was > 100 µM (inactive). The GI50 (SF-539) was > 100 µM (inactive), the GI50 (TK-10) was > 100 µM (inactive) and the GI50 (NCI-H23) was > 100 µM (inactive). For the same molecule, the GI50 (A549) was > 100 µM (inactive), the GI50 (U-251) was > 100 µM (inactive) and the GI50 (MDA-MB-231) was > 100 µM (inactive). For the same molecule, the GI50 (MOLT-4) was > 100 µM (inactive), the GI50 (NCI-H226) was > 100 µM (inactive) and the GI50 (HCT-15) was greater than 100 µM. For the same molecule, the GI50 (M14) was > 100 µM (inactive), the GI50 (UACC-62) was > 100 µM (inactive) and the GI50 (NCI/ADR-RES) was > 100 µM (inactive).
